Values of other authors in patent US20220218740A1, “OPIOID-FREE COMPOSITIONS FOR ANESTHESIOLOGICAL APPLICATIONS AND RELATED METHODS AND SYSTEMS” (Vaporworks Nursing Anesthesia Inc., priority 2020, published 2022).
Read-outs that look alike come from different tables or passages of the source. Blank lines part the entries; values can stand above or below the compound they belong to.

Tests used:
[1] = not given; remark: listed apart in the source
[2] = infusion continued post-surgically

Compound: Cc1cccc([C@H](C)c2cnc[nH]2)c1C [Dexmedetomidine]
peek effect (IV): 15 min

Compound: C[C@@H]1C[C@H]2[C@@H]3CCC4=CC(=O)C=C[C@]4(C)[C@@]3(F)[C@@H](O)C[C@]2(C)[C@@]1(O)C(=O)COP(=O)(O)O [Dexamethasone, Dexamethasone Sodium phosphate]
onset time (in vivo): two
time until peak effect (in vivo): at least 1 hour

Compound: CCN(CC)CC(=O)Nc1c(C)cccc1C [Lidocaine]
Peak serum levels occur after medication administration [2]: serum levels occur 24 hours

Second part, the compound after the results:

Duration ([1]; in vivo): up to 4 hours
Onset ([1]; in vivo): 2 to 5 min
Peak ([1]; in vivo): 5 to 15 min
Compound: CC(CCc1ccccc1)NCC(O)c1ccc(O)c(C(N)=O)c1 (stereo not shown) [labetalol]

Duration ([1]; in vivo): > 20 min
Peak ([1]; in vivo): 2 to 6 min
Onset ([1]; in words): Immediate
Compound: COC(=O)CCc1ccc(OCC(O)CNC(C)C)cc1 (stereo not shown) [esmolol]
